Measurements: the NIST ThermoML archive (doi:10.1016/j.jct.2013.02.022)

Columns and labels:
[1] = xn = mol fraction of the nth substance listed; details: 101 kPa, Liquid, Vibrating tube method
[2] = refractive index (Na D-line) (dimensionless); xn = mol fraction of the nth substance listed; details: 101 kPa, Liquid, Standard Abbe refractometry

CCCC(=O)[O-].C[NH2+]CCO [N-methyl-2-hydroxyethylammonium butanoate] + CCOC(C)=O
Details	mass density, [1] [kg/m3]	refractive index, [2]
303.15 K, x2 = 0	1035.87	1.4534
303.15 K, x2 = 0.0454	–	1.4533
303.15 K, x2 = 0.0956	–	1.4511
303.15 K, x2 = 0.199	1013.58	1.4472
303.15 K, x2 = 0.2901	1004.61	1.4411
303.15 K, x2 = 0.412	–	1.4324
303.15 K, x2 = 0.507	981.19	1.4246
303.15 K, x2 = 0.6018	–	1.4161
303.15 K, x2 = 0.7039	950.35	1.4055
303.15 K, x2 = 0.8031	931.53	1.3949
303.15 K, x2 = 0.8998	911.57	1.3812
303.15 K, x2 = 0.9497	–	1.3746
303.16 K, x2 = 0.0454	1026.24	–
303.16 K, x2 = 0.0956	1022.32	–
303.16 K, x2 = 0.412	992.58	–
303.16 K, x2 = 0.6018	967.06	–
303.16 K, x2 = 0.9497	900.62	–
308.15 K, x2 = 0	1032.53	–
308.15 K, x2 = 0.0956	1018.71	–
308.15 K, x2 = 0.199	1009.85	–
308.15 K, x2 = 0.2901	1000.57	–
308.15 K, x2 = 0.412	987.98	–
308.15 K, x2 = 0.507	976.57	–
308.15 K, x2 = 0.6018	962.31	–
308.15 K, x2 = 0.7039	945.26	–
308.15 K, x2 = 0.8031	926.08	–
308.15 K, x2 = 0.8998	905.73	–
308.16 K, x2 = 0.0454	1022.67	–
308.16 K, x2 = 0.9497	894.58	–
313.15 K, x2 = 0.0454	1019.09	–
313.15 K, x2 = 0.0956	1015.1	–
313.15 K, x2 = 0.6018	957.53	–
313.16 K, x2 = 0	1029.14	–
313.16 K, x2 = 0.199	1006.08	–
313.16 K, x2 = 0.2901	996.56	–
313.16 K, x2 = 0.412	983.25	–
313.16 K, x2 = 0.507	971.82	–
313.16 K, x2 = 0.7039	940.11	–
313.16 K, x2 = 0.8031	920.58	–
313.16 K, x2 = 0.8998	899.84	–
313.16 K, x2 = 0.9497	888.5	–
318.15 K, x2 = 0.9497	882.16	–
318.16 K, x2 = 0	1025.72	–
318.16 K, x2 = 0.0454	1015.66	–
318.16 K, x2 = 0.0956	1011.66	–
318.16 K, x2 = 0.199	1002.32	–
318.16 K, x2 = 0.2901	992.61	–
318.16 K, x2 = 0.412	978.49	–
318.16 K, x2 = 0.507	967.05	–
318.16 K, x2 = 0.6018	952.68	–
318.16 K, x2 = 0.7039	934.92	–
318.16 K, x2 = 0.8031	915.03	–
318.16 K, x2 = 0.8998	893.91	–
323.14 K, x2 = 0.0454	1012.2	–
323.14 K, x2 = 0.0956	1007.98	–
323.14 K, x2 = 0.199	998.56	–
323.14 K, x2 = 0.2901	988.83	–
323.14 K, x2 = 0.412	974.67	–
323.14 K, x2 = 0.507	962.75	–
323.14 K, x2 = 0.7039	929.55	–
323.14 K, x2 = 0.8031	909.33	–
323.14 K, x2 = 0.8998	887.92	–
323.15 K, x2 = 0.6018	947.5	–
323.15 K, x2 = 0.9497	876.1	–
323.16 K, x2 = 0	1022.26	–

CCCC(=O)[O-].C[NH2+]CCO [N-methyl-2-hydroxyethylammonium butanoate] + COC(C)=O
Details	mass density, [1] [kg/m3]	refractive index, [2]
288.14 K, x2 = 0.7912	977.2	–
288.15 K, x2 = 0	1046	1.4579
288.15 K, x2 = 0.0646	1040	1.4558
288.15 K, x2 = 0.1097	1036.1	1.4556
288.15 K, x2 = 0.2074	1027.3	1.4509
288.15 K, x2 = 0.3079	1021.07	1.4449
288.15 K, x2 = 0.3983	1015.6	1.4399
288.15 K, x2 = 0.4973	1011.5	1.4327
288.15 K, x2 = 0.5928	1003	1.4232
288.15 K, x2 = 0.6898	991.4	1.413
288.15 K, x2 = 0.7912	–	1.3996
288.15 K, x2 = 0.8979	–	1.3833
288.15 K, x2 = 0.898	959.7	–
288.15 K, x2 = 0.9483	–	1.3746
288.16 K, x2 = 0.9483	950.1	–
293.14 K, x2 = 0.0646	1036.4	–
293.14 K, x2 = 0.1097	1032.5	–
293.14 K, x2 = 0.9483	943.8	–
293.15 K, x2 = 0	1042.6	–
293.15 K, x2 = 0.2074	1024	–
293.15 K, x2 = 0.3079	1017.3	–
293.15 K, x2 = 0.3983	1011.4	–
293.15 K, x2 = 0.4973	1007.2	–
293.15 K, x2 = 0.5928	998.4	–
293.15 K, x2 = 0.6898	986.5	–
293.15 K, x2 = 0.7912	971.7	–
293.15 K, x2 = 0.898	953.8	–
298.14 K, x2 = 0.0646	1032.8	–
298.14 K, x2 = 0.3983	1007.1	–
298.14 K, x2 = 0.6898	981.5	–
298.14 K, x2 = 0.7912	966.2	–
298.14 K, x2 = 0.898	947.7	–
298.14 K, x2 = 0.9483	937.5	–
298.15 K, x2 = 0	1039.2	–
298.15 K, x2 = 0.1097	1028.9	–
298.15 K, x2 = 0.2074	1019.6	–
298.15 K, x2 = 0.3079	1013.2	–
298.15 K, x2 = 0.4973	1002.9	–
298.15 K, x2 = 0.5928	993.7	–
303.14 K, x2 = 0.0646	1029.1	–
303.14 K, x2 = 0.2074	1015.8	–
303.14 K, x2 = 0.3983	1002.8	–
303.14 K, x2 = 0.4973	998.4	–
303.14 K, x2 = 0.5928	989.1	–
303.14 K, x2 = 0.6898	976.4	–
303.14 K, x2 = 0.7912	960.7	–
303.14 K, x2 = 0.898	941.6	–
303.14 K, x2 = 0.9483	931.1	–
303.15 K, x2 = 0	1035.9	–
303.15 K, x2 = 0.1097	1025.2	–
303.15 K, x2 = 0.3079	1009	–
308.14 K, x2 = 0.0646	1025.6	–
308.14 K, x2 = 0.2074	1013.3	–
308.14 K, x2 = 0.3079	1004.8	–
308.14 K, x2 = 0.3983	998.5	–
308.14 K, x2 = 0.4973	992.6	–
308.14 K, x2 = 0.6898	971.3	–
308.14 K, x2 = 0.7912	955.1	–
308.14 K, x2 = 0.898	935.5	–
308.14 K, x2 = 0.9483	924.6	–
308.15 K, x2 = 0	1032.5	–
308.15 K, x2 = 0.1097	1021.6	–
308.15 K, x2 = 0.5928	984.3	–
313.14 K, x2 = 0.0646	1022	–
313.14 K, x2 = 0.1097	1018	–
313.14 K, x2 = 0.2074	1009.2	–
313.14 K, x2 = 0.3079	1000.6	–
313.14 K, x2 = 0.3983	994.2	–
313.14 K, x2 = 0.4973	988.8	–
313.14 K, x2 = 0.6898	966.1	–
313.14 K, x2 = 0.7912	949.5	–
313.14 K, x2 = 0.898	929.3	–
313.14 K, x2 = 0.9483	918.1	–
313.15 K, x2 = 0.5928	979.6	–
313.16 K, x2 = 0	1029.1	–
318.14 K, x2 = 0.1097	1014.3	–
318.14 K, x2 = 0.3079	996.3	–
318.14 K, x2 = 0.5928	974.8	–
318.14 K, x2 = 0.898	923	–
318.14 K, x2 = 0.9483	911.5	–
318.15 K, x2 = 0.0646	1018.3	–
318.15 K, x2 = 0.2074	1006.1	–
318.15 K, x2 = 0.3983	989.8	–
318.15 K, x2 = 0.4973	983.8	–
318.15 K, x2 = 0.6898	961	–
318.15 K, x2 = 0.7912	943.8	–
318.16 K, x2 = 0	1025.7	–
323.14 K, x2 = 0.1097	1010.6	–
323.14 K, x2 = 0.5928	970	–
323.15 K, x2 = 0.0646	1014.6	–
323.15 K, x2 = 0.2074	1001.4	–
323.15 K, x2 = 0.3079	992.33	–
323.15 K, x2 = 0.3983	985.3	–
323.15 K, x2 = 0.4973	979.2	–
323.15 K, x2 = 0.6898	955.7	–
323.15 K, x2 = 0.7912	938.1	–
323.15 K, x2 = 0.898	916.7	–
323.15 K, x2 = 0.9483	904.9	–
323.16 K, x2 = 0	1022.3	–
